In patent US4025630A, “Anesthesia methods using benzopyrans and esters thereof as pre-anesthesia medication” (Abbott Laboratories, priority 1974, dated 1977):
Structures can show the parent of a compound that is named as a salt.

Assays:
mice [1] = assay: Activity of benzopyrans as adjuvants to halothane anesthesia (Carson-Domino method); format: in vivo; set-up: key: +: statistically significant increase; -: statistically significant decrease; NE: no effect; (): large but non-statistically significant change
Text: (§1) A modification of the method of Carson and Domino (Anesthesiology, 23:187-192, 1962) was used.
(§2) Groups of 10 female Swiss-Webster (A. R. Schmidt, Madison, Wisconsin) mice weighing between 16-24 grams were pre-treated with various doses or at various times with drug either oral or by intravenous injection of the tail veins. The mice were placed into 2 liter beakers (5 animals per beaker). The tops of the beakers were covered with Parafilm to which a gauze sponge had been attached. 0.1 cc of Penthrane or halothrane was injected through the Parafilm into the sponge at 5 minute intervals. […] These parameters were measured by the use of a stop watch. Statistical analysis (one-way analysis of variance) was done on the computer.
A number of benzopyran derivatives were screened in mice as adjuvants to the anesthetic actions of halothane. The Carson-Domino method (Anesthesiology 23:187, 1962) was used to measure anesthetic induction times and duration of anesthesia as evidenced by loss of righting reflex, as well as changes in the lethality of halothane.
Screening doses of 5 mg./kg. intravenously or 20 mg./kg. orally were used.

mice [2] = assay: Interaction of Benzopyranopyridines with Pentothal (loss of righting reflex, sleep); format: in vivo, female Swiss-Webster mice
Method: (§3) Groups of 10 female Swiss-Webster (A. R. Schmidt, Madison, Wisconsin) mice weighing between 16-25 grams were used for all studies. Intravenous injections were made into the tail veins. The drugs were prepared daily in Sterile Water (Abbott List No. 1590). […] LD50 's ED50 's, and their associated conficence limits were calculated by the method of Litchfield and Wilcoxon (1949).
Interaction of Benzopyranopyridines with Pentothal
1. Animals pretreated with SP-106, 1 mg./kg. intravenously 0-30 minutes prior to Pentothal, 10 mg./kg. […] Longer pretreatment times (60 to 120 minutes) had no effect.

mice [3] = assay: Interaction of Benzopyranopyridines with Penthrane (modified Carson and Domino method); format: in vivo, female Swiss-Webster mice; conditions: 1 to 5 mg./kg. 15 minutes prior to Penthrane vapors
Text: as §1, §2

mice [4] = assay: Interaction of Benzopyranopyridines with Fluothane (halothane) (modified Carson and Domino method); format: in vivo, female Swiss-Webster mice; conditions: 1 to 5 mg./kg. 15 minutes prior to halothane vapors
Text: as §1, §2

[5] = Determination of the Anesthetic ED50 and the LD50 of Pentothal; format: in vivo, female Swiss-Webster mice; conditions: mouse, in vivo; intravenous, mice, observed one week; read-out: LD50 (95% C.L.)
Method: (§4) An intravenous potency/lethality ratio for Pentothal was established in mice as follows
(§5) Determination of the Anesthetic ED50 and the LD50 of Pentothal
as §3

mice [6] = assay: as above; format: in vivo, female Swiss-Webster mice
Method: as §4, §5, §3

[7] = Solubility in water of the product; conditions: powder
[8] = 5 mg/kg i.v., pretreatment time 15 minutes
[9] = 20 mg/kg p.o., pretreatment time 1 hr
[10] = 20 mg/kg p.o., pretreatment time 2 hr
[11] = 20 mg/kg p.o., pretreatment time 3 hr
[12] = 20 mg/kg p.o., pretreatment time 4 hr

**Q.** Which results are given for `CCCCCC(C)C(C)c1cc(OC(=O)CCCN2CCCCC2)c2c(c1)OC(C)(C)C1=C2CCC1` (centres unmarked) [SP-102]?
**A.** Duration (mice [1]; [8]): +; Lethality (mice [1]; [8]): NE; Onset (mice [1]; [8]): +

**Q.** Which peak effect (mice [2]; 1 mg./kg. intravenously 0-30 minutes prior to Pentothal 10 mg./kg.) does the source give for `C#CCN1CCC2=C(C1)c1c(OC(=O)CCCN3CCCCC3)cc(C(C)C(C)CCCCC)cc1OC2(C)C.Cl` (centres unmarked) [SP-106, 5,5-Dimethyl-8-(3-methyl-2-octyl)-10-[4-(piperidino)butyryloxy]-2-(2-propynyl)-1,2,3,4-tetrahydro-5H-[1]benzopyrano[3,4-d]pyridine hydrochloride] here?
**A.** 5 min

**Q.** What about the “anesthesia (loss of righting reflex)” value (mice [2]; 1 mg./kg. intravenously 0-30 minutes prior to Pentothal 10 mg./kg. (non-anesthetic dose)) of the same molecule?
**A.** produced anesthesia

**Q.** And the sleep duration (mice [2]; 1 and 5 mg./kg. intravenously 15 minutes prior to anesthetic dose (30 mg./kg.) of Pentothal)?
**A.** significantly lengthened the sleep

**Q.** What about the “effect at longer pretreatment times” value (mice [2]; 60 to 120 minutes pretreatment, 1 mg./kg. intravenously, Pentothal 10 mg./kg.) of the same molecule?
**A.** had no effect

**Q.** And the duration of anesthesia (mice [3])?
**A.** significantly lengthened the duration of anesthesia

**Q.** What about the onset to sleep (mice [3]) of the same molecule?
**A.** signficantly shortened onset to sleep

**Q.** What about the time to death (mice [3]) of the same molecule?
**A.** had no effect or lengthened time to death

**Q.** What about the Onset (mice [4]) of the same molecule?
**A.** reduction of onset

**Q.** And the duration of anesthesia (mice [4])?
**A.** increased the duration of anesthesia

**Q.** What about the time to death (mice [4]) of the same molecule?
**A.** increased

**Q.** And the Duration (mice [1]; [8])?
**A.** +

**Q.** And the Lethality (mice [1]; [8])?
**A.** -

**Q.** What about the Onset (mice [1]; [8]) of the same molecule?
**A.** -

**Q.** For `C#CCN1CCC2=C(C1)c1c(OC(=O)CCCN3CCCCC3C)cc(C(C)C(C)CCCCC)cc1OC2(C)C` (centres unmarked) [SP-159, 5,5-Dimethyl-10-[4-(2-methylpiperidino)butyryloxy]-8-(3-methyl-2-octyl)-2-(2-propynyl)-1,2,3,4-tetrahydro-5H-[1]benzopyrano [3,4-d] pyridine hydrochloride], which Duration (mice [1]; [8]) is on record?
**A.** +

**Q.** And the Lethality (mice [1]; [8])?
**A.** NE

**Q.** What about the Onset (mice [1]; [8]) of the same molecule?
**A.** -

**Q.** What does the source list for `C#CCN1CCC2=C(C1)c1c(OC(=O)C(C)CCN3CCCCC3)cc(C(C)C(C)CCCCC)cc1OC2(C)C` (centres unmarked) [SP-178, 5,5-Dimethyl-10-[2-methyl-4-(piperidino)butyryloxy]-8-(3-methyl-2-octyl)-2-(2-propynyl)-1,2,3,4-tetrahydro-5H-[1]benzopyrano[3,4-d] pyridine dihydrochloride]?
**A.** Duration (mice [1]; [8]): +; Lethality (mice [1]; [8]): NE; Onset (mice [1]; [8]): -

**Q.** For `C#CCN1CCC2=C(C1)c1c(O)cc(C(C)C(C)CCCCC)cc1OC2(C)C` (centres unmarked) [SP-1], which Duration (mice [1]; [9]) is on record?
**A.** +

**Q.** And the Lethality (mice [1]; [9])?
**A.** -

**Q.** And the Onset (mice [1]; [9])?
**A.** +

**Q.** And the Duration (mice [1]; [10])?
**A.** +

**Q.** What about the Lethality (mice [1]; [10]) of the same molecule?
**A.** NE

**Q.** What about the Onset (mice [1]; [10]) of the same molecule?
**A.** -

**Q.** What about the Duration (mice [1]; [11]) of the same molecule?
**A.** +

**Q.** And the Lethality (mice [1]; [11])?
**A.** NE

**Q.** And the Onset (mice [1]; [11])?
**A.** -

**Q.** What about the Duration (mice [1]; [12]) of the same molecule?
**A.** +

**Q.** What about the Lethality (mice [1]; [12]) of the same molecule?
**A.** NE

**Q.** What about the Onset (mice [1]; [12]) of the same molecule?
**A.** -

**Q.** Which results are given for `CCCC(C)C1(CC)C(=O)NC(=S)NC1=O` (centres unmarked) [Pentothal, sodium thiopental]?
**A.** LD50 at 168 h [5]: 76 mg/kg; ED50 (mice [6]; Mus musculus, intravenous, mice, loss of righting reflex, read-out: Anesthetic ED50 (95% C.L.)): 20 mg/kg; pH (mice [6]; Remarks: irritating (pH 11)): 11; Remarks: duration (mice [6]; intravenous, mice): short duration; Remarks: irritation (mice [6]; intravenous, mice): irritating; Remarks: onset (mice [6]; intravenous, mice): Immediate onset; Therapeutic Index (mice [6]; intravenous, mice): ~ 4

**Q.** With `CC1CCC2=C(C1)c1c(OC(=O)CCCN3CCCCC3)cc(C(C)CCCc3ccc(F)cc3)cc1OC2(C)C` (centres unmarked) [Example 71] as the molecule, how does the solubility in water [7] read?
**A.** soluble in water

**Q.** For `C#CCN1CCC2=C(C1)c1c(OC(=O)C(C)CCN3CCCCC3C)cc(C(C)C(C)CCCCC)cc1OC2(C)C` (centres unmarked) [SP-204], which Duration (mice [1]; [8]) is on record?
**A.** +

**Q.** And the Lethality (mice [1]; [8])?
**A.** -

**Q.** What about the Onset (mice [1]; [8]) of the same molecule?
**A.** -

**Q.** With `CCCCCc1cc(OC(=O)CCCN2CCOCC2)c2c(c1)OC(C)(C)C1CCC(C)=CC21` (centres unmarked) [SP-111] as the molecule, how does the Duration (mice [1]; [8]) read?
**A.** +

**Q.** What about the Lethality (mice [1]; [8]) of the same molecule?
**A.** NE

**Q.** And the Onset (mice [1]; [8])?
**A.** -

**Q.** Which Lethality (mice [1]; [8]) does the source give for `CCCCCC(C)C(C)c1cc(OC(=O)CCCN2CCCCC2)c2c(c1)OC(C)(C)C1=C2CCCS1` (centres unmarked) [SP-117] here?
**A.** NE

**Q.** And the Onset (mice [1]; [8])?
**A.** +

**Q.** For `C#CCN1CCC2=C(C1)c1c(OC(=O)CCCN3CCCCC3)cc(C(C)CCCc3ccc(F)cc3)cc1OC2(C)C` (centres unmarked) [SPA-109], which Duration (mice [1]; [8]) is on record?
**A.** +

**Q.** And the Lethality (mice [1]; [8])?
**A.** NE

**Q.** And the Onset (mice [1]; [8])?
**A.** -

**Q.** Which results are given for `C#CCN1CCC2=C(C1)c1c(OC(=O)CCCN3CCOCC3)cc(C(C)C(C)CCCCC)cc1OC2(C)C.Cl` (centres unmarked) [SP-112, 5,5-Dimethyl-10-[4-(morpholino)butyryloxy]-8-(3-methyl-2-octyl)-2-(2-propynyl)-1,2,3,4-tetrahydro-5H-[1]-benzopyrano [3,4-d] pyridine hydrochloride]?
**A.** Duration (mice [1]; [8]): +; Lethality (mice [1]; [8]): NE; Onset (mice [1]; [8]): -
